Reference: ChEMBL document CHEMBL5210307, “Affinity Biochemical Literature for EUbOPEN Chemogenomics Library wave 3” (2023)
Each block holds one compound with its values, some of them ahead of it.

Columns and labels:
Ephrin type-B receptor 4 = Ephrin type-B receptor 4 (Homo sapiens, UniProt P54760); experiment: Affinity Biochemical interaction (Microscale thermophoresis (MST) assay) EUB0000143b EPHB4; design: mode of action Inhibitor, recommended concentration 100 nM
[1] = molecular target: Transient receptor potential cation channel subfamily A member 1 (Homo sapiens, UniProt O75762); experiment: Affinity Biochemical interaction (FLIPR-based Ca2+ assay (activated by 30 µM AITC)) EUB0000308b TRPA1; design: mode of action Antagonist, recommended concentration 1 uM
[2] = molecular target: Histone acetyltransferase p300 (Homo sapiens, UniProt Q09472)
[3] = molecular target: Methionine aminopeptidase 2 (Homo sapiens, UniProt P50579); experiment: Affinity Biochemical interaction (Biochemical activity assay (addition of Mn)) EUB0000303b METAP2; design: mode of action Inhibitor, recommended concentration 1 uM
[4] = molecular target: Tyrosine-protein kinase Mer (Homo sapiens, UniProt Q12866)
[5] = molecular target: Oxidized purine nucleoside triphosphate hydrolase (Homo sapiens, UniProt P36639); experiment: Affinity Biochemical interaction (PPiLight Biochemical Assay (full-length human NUDT1)) EUB0000587a NUDT1
[6] = molecular target: AP2-associated protein kinase 1 (Homo sapiens, UniProt Q2M2I8); experiment: Affinity Biochemical interaction (Competition binding assay) EUB0000166b AAK1; design: mode of action Negative control for SGC-AAK1-1, recommended concentration 1 uM
[7] = molecular target: BMP-2-inducible protein kinase (Homo sapiens, UniProt Q9NSY1); experiment: Affinity Biochemical interaction (Competition binding assay) EUB0000166b BMP2K; design: mode of action Negative control for SGC-AAK1-1, recommended concentration 1 uM
[8] = molecular target: Discoidin domain-containing receptor 2 (Homo sapiens, UniProt Q16832); experiment: Affinity Biochemical interaction (Radiometric assay (10 µM ATP, Reaction Biology)) EUB0000156b DDR2; design: mode of action Negative control for DDR-TRK-1 (D2202-1), recommended concentration 1 uM
[9] = molecular target: High affinity nerve growth factor receptor (Homo sapiens, UniProt P04629); experiment: Affinity Biochemical interaction (Radiometric assay (10 µM ATP, Reaction Biology)) EUB0000156b NTRK1; design: mode of action Negative control for DDR-TRK-1 (D2202-1), recommended concentration 1 uM
[10] = molecular target: NT-3 growth factor receptor (Homo sapiens, UniProt Q16288); experiment: Affinity Biochemical interaction (Radiometric assay (10 µM ATP, Reaction Biology)) EUB0000156b NTRK3; design: mode of action Negative control for DDR-TRK-1 (D2202-1), recommended concentration 1 uM
[11] = molecular target: Epithelial discoidin domain-containing receptor 1 (Homo sapiens, UniProt Q08345); experiment: Affinity Biochemical interaction (Radiometric assay (10 µM ATP, Reaction Biology)) EUB0000156b DDR1; design: mode of action Negative control for DDR-TRK-1 (D2202-1), recommended concentration 1 uM
[12] = molecular target: Histone acetyltransferase KAT2B (Homo sapiens, UniProt Q92831); experiment: Affinity Biochemical interaction (BROMOscan assay (DiscoverX)) EUB0000218c KAT2B; design: mode of action Inhibitor, recommended concentration 1 uM
[13] = molecular target: Dual specificity protein kinase CLK2 (Homo sapiens, UniProt P49760); experiment: Affinity Biochemical interaction (NanoBRET assay (in HEK293T cells)) EUB0000009b CLK2; type: cell-based; design: mode of action Negative control for MU1210, recommended concentration 1 uM
[14] = molecular target: Dual specificity protein kinase CLK1 (Homo sapiens, UniProt P49759); experiment: Affinity Biochemical interaction (NanoBRET assay (in HEK293T cells)) EUB0000009b CLK1; type: cell-based; design: mode of action Negative control for MU1210, recommended concentration 1 uM
[15] = molecular target: Dual specificity protein kinase CLK4 (Homo sapiens, UniProt Q9HAZ1); experiment: Affinity Biochemical interaction (NanoBRET assay (in HEK293T cells)) EUB0000009b CLK4; type: cell-based; design: mode of action Negative control for MU1210, recommended concentration 1 uM
[16] = Affinity Biochemical interaction (FLIPR assay) EUB0000337aCl P2RY14
Protein AF-9 [17] = molecular target: T1, Protein AF-9 (Homo sapiens, UniProt P42568)
T1 sequence (P42568 whole entry): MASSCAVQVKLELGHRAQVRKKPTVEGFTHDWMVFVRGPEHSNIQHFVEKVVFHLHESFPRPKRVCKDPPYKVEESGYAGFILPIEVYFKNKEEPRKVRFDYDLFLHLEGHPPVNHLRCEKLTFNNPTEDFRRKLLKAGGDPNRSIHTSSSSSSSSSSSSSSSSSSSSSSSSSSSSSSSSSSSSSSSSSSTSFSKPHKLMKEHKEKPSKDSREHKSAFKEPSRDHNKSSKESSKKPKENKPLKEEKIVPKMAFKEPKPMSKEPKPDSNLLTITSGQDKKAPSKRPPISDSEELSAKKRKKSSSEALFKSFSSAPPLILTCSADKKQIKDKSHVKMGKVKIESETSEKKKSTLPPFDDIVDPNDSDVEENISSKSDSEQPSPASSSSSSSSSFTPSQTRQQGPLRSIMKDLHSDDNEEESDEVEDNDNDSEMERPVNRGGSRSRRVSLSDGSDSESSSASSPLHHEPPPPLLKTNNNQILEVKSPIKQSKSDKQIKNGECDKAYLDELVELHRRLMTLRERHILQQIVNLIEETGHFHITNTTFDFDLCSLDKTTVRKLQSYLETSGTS

[18] = molecular target: Alpha-1D adrenergic receptor (Homo sapiens, UniProt P25100); experiment: Affinity Biochemical interaction (Binding assay) EUB0000300bCl ADRA1D; design: mode of action Antagonist, recommended concentration 1 uM
[19] = molecular target: RAC-alpha serine/threonine-protein kinase (Homo sapiens, UniProt P31749); experiment: Affinity Biochemical interaction (HTFR assay) EUB0000721a AKT1
[20] = molecular target: Nucleosome-remodeling factor subunit BPTF (Homo sapiens, UniProt Q12830); experiment: Affinity Biochemical interaction (BioLayer Interferometry assay (BLI)) EUB0000254b BPTF; design: mode of action Negative control for NVS-BPTF-1, recommended concentration 1 uM
[21] = molecular target: Peripheral plasma membrane protein CASK (Homo sapiens, UniProt O14936); experiment: Affinity Biochemical interaction (Isothermal titration calorimetry (ITC)) EUB0000723a CASK; design: mode of action Inhibitor, recommended concentration 1 uM
Protein AF-9 [22] = molecular target: T1, Protein AF-9; experiment: Affinity Biochemical interaction (HTRF-based inhibition assay) EUB0000732a MLLT3; design: mode of action Negative control for PFI-6, recommended concentration 1 uM
Protein ENL = Protein ENL (Homo sapiens, UniProt Q03111); experiment: Affinity Biochemical interaction (HTRF-based inhibition assay) EUB0000732a MLLT1; design: mode of action Negative control for PFI-6, recommended concentration 1 uM

Sequence of Peripheral plasma membrane protein CASK (O14936 whole entry): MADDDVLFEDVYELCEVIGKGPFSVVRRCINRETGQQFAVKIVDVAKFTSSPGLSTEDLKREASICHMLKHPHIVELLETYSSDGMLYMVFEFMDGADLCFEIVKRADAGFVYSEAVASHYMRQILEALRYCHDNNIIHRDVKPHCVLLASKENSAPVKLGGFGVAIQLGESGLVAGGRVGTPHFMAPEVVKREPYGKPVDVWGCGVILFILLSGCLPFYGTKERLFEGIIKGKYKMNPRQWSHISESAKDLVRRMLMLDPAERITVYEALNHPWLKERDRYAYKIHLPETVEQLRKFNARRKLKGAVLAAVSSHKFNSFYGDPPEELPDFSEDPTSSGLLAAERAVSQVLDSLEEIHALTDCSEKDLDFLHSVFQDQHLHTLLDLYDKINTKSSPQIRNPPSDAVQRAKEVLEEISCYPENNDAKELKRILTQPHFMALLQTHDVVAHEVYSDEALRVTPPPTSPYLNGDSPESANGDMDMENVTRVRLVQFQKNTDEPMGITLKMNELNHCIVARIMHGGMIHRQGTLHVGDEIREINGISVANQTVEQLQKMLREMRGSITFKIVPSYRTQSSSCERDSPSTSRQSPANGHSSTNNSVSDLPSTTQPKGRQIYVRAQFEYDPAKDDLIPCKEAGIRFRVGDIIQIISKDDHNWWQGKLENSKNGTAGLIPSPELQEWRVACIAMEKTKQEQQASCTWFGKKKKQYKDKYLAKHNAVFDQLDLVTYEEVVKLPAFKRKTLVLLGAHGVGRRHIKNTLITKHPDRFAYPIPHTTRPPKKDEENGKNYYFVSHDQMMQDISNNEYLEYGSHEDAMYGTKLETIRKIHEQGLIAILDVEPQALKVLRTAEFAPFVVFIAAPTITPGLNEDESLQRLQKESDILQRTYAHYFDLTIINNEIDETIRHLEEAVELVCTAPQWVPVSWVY
Sequence of Transient receptor potential cation channel subfamily A member 1 (O75762 whole entry): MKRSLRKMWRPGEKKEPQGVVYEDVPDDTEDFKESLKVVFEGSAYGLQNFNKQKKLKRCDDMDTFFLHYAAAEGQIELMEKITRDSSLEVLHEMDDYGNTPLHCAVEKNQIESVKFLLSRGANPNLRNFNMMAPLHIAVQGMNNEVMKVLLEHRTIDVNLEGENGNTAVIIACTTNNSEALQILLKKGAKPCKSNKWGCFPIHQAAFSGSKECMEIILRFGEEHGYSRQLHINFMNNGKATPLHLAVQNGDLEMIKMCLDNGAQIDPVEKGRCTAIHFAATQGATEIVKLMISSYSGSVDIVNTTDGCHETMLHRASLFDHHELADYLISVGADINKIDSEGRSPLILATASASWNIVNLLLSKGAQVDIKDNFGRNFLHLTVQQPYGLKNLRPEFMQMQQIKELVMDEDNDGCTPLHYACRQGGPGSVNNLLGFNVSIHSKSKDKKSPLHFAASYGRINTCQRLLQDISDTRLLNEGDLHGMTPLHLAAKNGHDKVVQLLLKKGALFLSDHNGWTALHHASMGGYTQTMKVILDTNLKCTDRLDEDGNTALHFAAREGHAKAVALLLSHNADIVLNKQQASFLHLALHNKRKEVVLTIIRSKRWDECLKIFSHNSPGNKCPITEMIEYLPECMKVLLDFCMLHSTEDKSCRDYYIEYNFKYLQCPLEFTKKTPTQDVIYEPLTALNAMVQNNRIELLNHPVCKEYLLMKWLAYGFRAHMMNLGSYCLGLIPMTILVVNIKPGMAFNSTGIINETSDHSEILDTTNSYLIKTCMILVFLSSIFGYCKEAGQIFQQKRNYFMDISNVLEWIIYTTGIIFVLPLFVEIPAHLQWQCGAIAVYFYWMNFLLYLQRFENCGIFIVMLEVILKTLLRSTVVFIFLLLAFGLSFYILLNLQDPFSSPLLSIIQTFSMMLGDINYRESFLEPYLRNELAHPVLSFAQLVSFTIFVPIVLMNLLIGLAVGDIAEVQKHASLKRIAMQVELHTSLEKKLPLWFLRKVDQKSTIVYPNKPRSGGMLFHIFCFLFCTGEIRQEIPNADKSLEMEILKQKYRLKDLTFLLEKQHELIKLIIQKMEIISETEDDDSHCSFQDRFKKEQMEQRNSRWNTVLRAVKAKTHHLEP
Sequence of Dual specificity protein kinase CLK4 (Q9HAZ1 whole entry): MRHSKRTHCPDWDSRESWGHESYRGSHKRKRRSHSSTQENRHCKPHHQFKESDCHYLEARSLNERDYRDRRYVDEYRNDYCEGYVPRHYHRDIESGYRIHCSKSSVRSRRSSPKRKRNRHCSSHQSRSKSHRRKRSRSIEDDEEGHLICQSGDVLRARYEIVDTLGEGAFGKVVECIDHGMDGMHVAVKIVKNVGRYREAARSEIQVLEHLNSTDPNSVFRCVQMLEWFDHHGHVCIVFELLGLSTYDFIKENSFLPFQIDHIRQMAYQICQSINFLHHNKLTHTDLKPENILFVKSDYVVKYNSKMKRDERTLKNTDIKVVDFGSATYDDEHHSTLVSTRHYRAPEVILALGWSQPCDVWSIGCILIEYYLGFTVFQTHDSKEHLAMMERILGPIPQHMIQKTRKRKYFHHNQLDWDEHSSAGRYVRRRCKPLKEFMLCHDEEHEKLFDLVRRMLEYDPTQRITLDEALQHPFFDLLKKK
Sequence of Alpha-1D adrenergic receptor (P25100 whole entry): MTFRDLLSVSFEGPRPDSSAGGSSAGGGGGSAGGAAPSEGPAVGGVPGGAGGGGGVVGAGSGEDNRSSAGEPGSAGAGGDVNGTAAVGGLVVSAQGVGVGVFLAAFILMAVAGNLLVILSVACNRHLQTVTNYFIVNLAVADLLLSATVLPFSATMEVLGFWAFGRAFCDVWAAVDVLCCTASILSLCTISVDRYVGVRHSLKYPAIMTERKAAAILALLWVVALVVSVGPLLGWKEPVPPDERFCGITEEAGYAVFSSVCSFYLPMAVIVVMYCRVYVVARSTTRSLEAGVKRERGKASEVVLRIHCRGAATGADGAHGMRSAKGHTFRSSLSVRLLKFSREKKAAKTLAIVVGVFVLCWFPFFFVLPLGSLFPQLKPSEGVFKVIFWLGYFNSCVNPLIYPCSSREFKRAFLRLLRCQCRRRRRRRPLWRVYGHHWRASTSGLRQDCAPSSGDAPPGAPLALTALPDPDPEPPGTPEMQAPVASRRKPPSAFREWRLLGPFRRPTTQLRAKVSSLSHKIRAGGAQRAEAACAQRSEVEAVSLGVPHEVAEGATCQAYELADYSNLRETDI
Sequence of Dual specificity protein kinase CLK1 (P49759 whole entry): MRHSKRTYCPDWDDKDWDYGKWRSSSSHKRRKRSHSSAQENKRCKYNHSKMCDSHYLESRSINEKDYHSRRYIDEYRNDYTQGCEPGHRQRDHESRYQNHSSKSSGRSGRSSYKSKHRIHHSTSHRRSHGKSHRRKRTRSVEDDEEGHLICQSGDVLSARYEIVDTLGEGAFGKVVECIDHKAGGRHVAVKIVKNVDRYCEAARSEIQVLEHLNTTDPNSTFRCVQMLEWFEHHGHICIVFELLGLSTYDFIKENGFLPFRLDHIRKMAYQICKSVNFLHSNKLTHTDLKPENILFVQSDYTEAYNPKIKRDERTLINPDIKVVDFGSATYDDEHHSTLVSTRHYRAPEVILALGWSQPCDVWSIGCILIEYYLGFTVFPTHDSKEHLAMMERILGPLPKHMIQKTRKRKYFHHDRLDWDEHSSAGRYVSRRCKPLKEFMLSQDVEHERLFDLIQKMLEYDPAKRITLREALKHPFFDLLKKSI
Sequence of Ephrin type-B receptor 4 (P54760 whole entry): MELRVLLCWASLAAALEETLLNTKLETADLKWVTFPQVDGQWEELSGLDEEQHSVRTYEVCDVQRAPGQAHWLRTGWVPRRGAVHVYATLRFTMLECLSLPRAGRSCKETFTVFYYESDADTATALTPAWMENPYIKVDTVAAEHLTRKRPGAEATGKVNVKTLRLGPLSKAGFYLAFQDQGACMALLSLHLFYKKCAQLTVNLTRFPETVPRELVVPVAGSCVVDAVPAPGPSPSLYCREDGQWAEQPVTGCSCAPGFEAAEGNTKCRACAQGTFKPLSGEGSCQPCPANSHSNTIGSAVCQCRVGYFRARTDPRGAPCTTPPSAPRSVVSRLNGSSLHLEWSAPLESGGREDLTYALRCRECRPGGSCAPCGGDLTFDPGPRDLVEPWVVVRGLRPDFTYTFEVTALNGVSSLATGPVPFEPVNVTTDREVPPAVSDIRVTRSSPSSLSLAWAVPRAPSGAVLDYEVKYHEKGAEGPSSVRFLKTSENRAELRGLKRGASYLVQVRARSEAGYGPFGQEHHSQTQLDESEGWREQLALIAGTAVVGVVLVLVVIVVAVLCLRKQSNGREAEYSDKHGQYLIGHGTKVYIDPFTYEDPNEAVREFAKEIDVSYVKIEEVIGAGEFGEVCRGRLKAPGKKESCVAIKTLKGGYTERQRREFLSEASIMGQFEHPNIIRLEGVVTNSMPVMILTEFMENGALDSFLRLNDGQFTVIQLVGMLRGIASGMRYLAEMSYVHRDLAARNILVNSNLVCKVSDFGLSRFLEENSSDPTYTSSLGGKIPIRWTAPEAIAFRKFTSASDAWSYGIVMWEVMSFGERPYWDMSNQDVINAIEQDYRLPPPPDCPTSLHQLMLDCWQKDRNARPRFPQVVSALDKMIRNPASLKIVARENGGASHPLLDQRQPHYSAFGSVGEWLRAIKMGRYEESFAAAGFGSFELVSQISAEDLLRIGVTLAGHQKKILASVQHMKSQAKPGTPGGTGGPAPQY
Sequence of Dual specificity protein kinase CLK2 (P49760 whole entry): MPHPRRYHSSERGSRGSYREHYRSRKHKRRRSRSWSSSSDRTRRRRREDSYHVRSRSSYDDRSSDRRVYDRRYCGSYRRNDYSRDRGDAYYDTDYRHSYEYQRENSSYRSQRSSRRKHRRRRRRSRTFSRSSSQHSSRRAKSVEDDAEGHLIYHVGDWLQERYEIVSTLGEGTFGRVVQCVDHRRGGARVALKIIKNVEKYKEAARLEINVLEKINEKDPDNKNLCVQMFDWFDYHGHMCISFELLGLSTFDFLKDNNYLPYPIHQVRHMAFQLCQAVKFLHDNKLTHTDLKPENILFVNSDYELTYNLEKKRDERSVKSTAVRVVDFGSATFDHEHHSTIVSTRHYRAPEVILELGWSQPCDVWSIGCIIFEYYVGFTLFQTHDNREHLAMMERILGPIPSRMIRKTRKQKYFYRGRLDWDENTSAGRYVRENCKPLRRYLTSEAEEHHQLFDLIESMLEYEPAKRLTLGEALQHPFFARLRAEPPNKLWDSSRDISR

IC50 (Ephrin type-B receptor 4): 0.006 µM
SMILES: Cc1ccc(C(=O)Nc2cccc(C(F)(F)F)c2)cc1Nc1nc(-c2cccnc2)nc2c1cnn2C

IC50 [3]: 0.007 µM
SMILES: Cc1nc(N2CC[C@H](O)C2)ncc1-c1cc(C(F)(F)F)cc2[nH]ncc12

Kd [6]: 8.8 µM | Kd [7]: > 10 µM
SMILES: CC(C)C(=O)Nc1n[nH]c2cc(-c3cccc(NS(=O)(=O)C4CC4)c3)ccc12

IC50 [8]: > 10 µM | IC50 [9]: 6.25 µM | IC50 [10]: 8.1 µM | IC50 [11]: 1.73 µM
SMILES: CN1CCN(Cc2cc(NC(=O)c3ccc4c(c3)CN(c3ccccc3)CC4)cc(C(F)(F)F)c2)CC1

IC50 [16]: 4.38 µM
SMILES: Cc1c(C(=O)O)cc(-c2ccc(C3CCNCC3)cc2)c2ccc(-c3ccc(C(F)(F)F)cc3)cc12

Kd [20]: 1.67 µM
SMILES: Cc1c(Nc2ccc(S(=O)(=O)N3CCN(C)CC3)cc2F)nc2ccc(Nc3cnn(C4CC4)c3)cn2c1=O

Kd [21]: 0.022 µM
SMILES: O=C(NCCCN1CCOC1=O)c1cnc(NCc2cc(Br)ccc2Br)nc1NC1CCCC1

Continued, compound first:

SMILES: Clc1cccc(-c2nnnn2Cc2cccnc2)c1Cl
IC50 [1]: 0.067 µM

SMILES: CCC(=O)N1CCOc2c(cc(-c3ccc(OC)c(OC)c3)cc2OC[C@H]2CCCN(C)C2)C1
Kd [2]: 0.625 µM

SMILES: CCOc1cn(-c2ccc(F)cc2C)nc1C(=O)Nc1ccc(Oc2ccnc3cc(OC)c(OC)cc23)c(F)c1
IC50 [4]: 0.005 µM

SMILES: CCNC(=O)c1cc2c(N3CCOC[C@@H]3C)ccnc2n1C
IC50 [5]: > 20 µM

SMILES: Cc1nnc2c3ccccc3c(N[C@@H](C)[C@H](c3ccccc3)N(C)C)nn12
IC50 [12]: 0.048 µM

SMILES: Cn1cc(-c2ccc3occ(-c4ccccc4-c4ccccc4)c3n2)cn1
Ki [13]: > 10 µM | Ki [14]: > 10 µM | Ki [15]: > 10 µM

SMILES: CN(C)C(=O)c1ccc(-c2cc(C(=O)N[C@@H]3CCc4ccccc43)no2)cc1O
IC50 (Protein AF-9 [17]): 0.16 µM

SMILES: C[C@@H](c1cccc(CN)c1)n1cc(Cl)cc(C(N)=O)c1=N
Ki [18]: 0.0016 µM

SMILES: C=CC(=O)Nc1ccc2[nH]c(=O)n(C3CCN(C(=O)c4ccc(-c5nc6cc[nH]c(=O)c6cc5-c5ccccc5)cc4)CC3)c2c1
IC50 [19]: 9.2 µM

SMILES: CN(C)C(=O)c1ccc(-c2cc(C(=O)N(C)C3CCCC3)no2)cc1O
IC50 (Protein AF-9 [22]): > 30 µM | IC50 (Protein ENL): > 30 µM
